PMC3465557, “Mixed antagonistic effects of the ginkgolides at recombinant human ρ1 GABAC receptors” (Neuropharmacology, 2012)

Assays:
Assay type in all cases: cell-based
[1] = biological target: T1, recombinant human ρ1 GABAC receptors (Homo sapiens, UniProt P24046); assay: Inhibition curves: ginkgolides co-applied with a fixed GABA concentration, two-electrode voltage clamp in Xenopus oocytes
T1 construct: expressed in transfected cells; host or cells: Xenopus laevis oocytes (cRNA injection)
Description: (§1) Human ρ1 GABAC receptor subunit cDNA was linearized using the restriction enzyme Xba 1 and transcribed using the “mMESSAGE mMACHINE” kit (Ambion Inc., Austin, TX, USA). RNA (10 ng/50 nl) was injected into the cytoplasm of defollicated oocytes using a 15–20 μm diameter tip glass micropipette Nanoject injector (Drummond Scientific Co., Broomali, PA, USA). The oocytes were incubated for 2–7 days at 18 °C in ND96 buffer with a twice-daily change of buffer.
(§2) Whole-cell currents from homomeric ρ1 GABAC receptors expressed in oocytes were recorded using two-electrode voltage clamp. Recording microelectrodes were fabricated with a micropipette puller (Narishige Scientific Instrument Lab, Tokyo, Japan) and filled with 3 M KCl solution. Oocytes were clamped at −60 mV and continuously superfused with ND96 buffer. […] […]. Co-applications of ginkgolides were interleaved with test applications of GABA alone to monitor the response throughout the experiment. […] A washout period of 3–5 min was allowed between each application.
(§3) Analysis and curve fitting was performed using GraphPad Prism v3.02 (GraphPad Software, San Diego, California, USA). […] […]. […] Unless otherwise noted, parameters were calculated from individual oocytes and then averaged.

[2] = biological target: T1, recombinant human ρ1 GABAC receptors; assay: Fit of kinetic schemes 1-4 to equilibrium GABA concentration–response curves
From the text: The concentration–response curves were fitted with the different mechanisms of inhibition using a least squares non-linear regression in GraphPad Prism.
The mechanism used (Fig. 7, Scheme 1) is that of [Amin and Weiss (1996)], where there are five equivalent agonist binding sites and three sites need to be occupied to activate the receptor, leading to a single open state. […] This assumes five equivalent agonist binding sites but only three are required to be occupied to activate (open) the channel pore. All subsequent kinetic schemes are derivatives of the linear scheme, by incorporating different possible mechanisms for antagonism by ginkgolides. These are drawn from the cyclic mixed-antagonism mechanism described by [Smart and Constanti (1986)]. Scheme 2 and scheme 3 both assume that ginkgolide binds to a single site in the receptor complex. […] For scheme 4, the equilibrium between the fully-liganded closed and open states is removed, which allows for the possibility that the ginkgolide binds to a separate site in the closed state compared to the open state.
Initially, a cyclic allosteric mechanism (Fig. 7, scheme 2) similar to that of [Smart and Constanti (1986)] was fit to the data. This scheme assumes a single binding site on the receptor complex that has an allosteric effect on all rate constants in the reaction mechanism. The scheme was fitted to the data allowing the agonist equilibrium constant, Ka, to be related to the equilibrium constant in the presence of ginkgolide, Ka′ by a constant ratio, R = Ka/Ka′. Similarly, the opening equilibrium constants E and E′ were related by the ratio, S = E/E′. […] As a test of the mechanism, the parameters obtained from the fit were used to predict the inhibition curves (Fig. 8D–F).
This effectively means that ginkgolide is binding at two separate sites. […] Scheme 4 is therefore functionally similar to scheme 2 with E′ having a value close to zero.

[3] = biological target: T1, recombinant human ρ1 GABAC receptors; assay: Inhibition and recovery time when ginkgolide is co-applied during the plateau of the GABA-activated current
Description: as §2
The recovery time from inhibition (measured as the 10–90% rise interval) was determined from the current responses obtained when ginkgolides A, B and C were co-applied during the plateau of the GABA-activated current (Fig. 6). […].
Fig. 6 Recovery time from ginkgolide inhibition.

[4] = biological target: T1, recombinant human ρ1 GABAC receptors; assay: Use-dependence: repeated co-applications with GABA during extended incubation of ginkgolide; conditions: for use-dependence: repeated co-applications
Description: as §2
Fig. 5 Use-dependent effect in the antagonism of ρ1 GABAC receptors by ginkgolides. A. Examples of currents recorded during repeated co-applications of GABA and ginkgolides. […] Each application was separated by a 3-min interval. […]. […] Overall, there was no obvious evidence for use-dependent inhibition by the ginkgolides.

[5] = biological target: T1, recombinant human ρ1 GABAC receptors; assay: GABA concentration–response curves in the presence and absence of ginkgolides, two-electrode voltage clamp in Xenopus oocytes; conditions: for type of antagonism: from GABA concentration–response and inhibition curves
Description: as §1, §2, §3

[6] = Hill coefficient of GABA curve with 10 μM antagonist
[7] = Hill coefficient of GABA curve with 30 μM antagonist
[8] = Hill coefficient of GABA curve with 100 μM antagonist
[9] = in the presence of 10 μM ginkgolide
[10] = in the presence of 30 μM ginkgolide
[11] = in the presence of 100 μM ginkgolide

T1 sequence (P24046 22-479): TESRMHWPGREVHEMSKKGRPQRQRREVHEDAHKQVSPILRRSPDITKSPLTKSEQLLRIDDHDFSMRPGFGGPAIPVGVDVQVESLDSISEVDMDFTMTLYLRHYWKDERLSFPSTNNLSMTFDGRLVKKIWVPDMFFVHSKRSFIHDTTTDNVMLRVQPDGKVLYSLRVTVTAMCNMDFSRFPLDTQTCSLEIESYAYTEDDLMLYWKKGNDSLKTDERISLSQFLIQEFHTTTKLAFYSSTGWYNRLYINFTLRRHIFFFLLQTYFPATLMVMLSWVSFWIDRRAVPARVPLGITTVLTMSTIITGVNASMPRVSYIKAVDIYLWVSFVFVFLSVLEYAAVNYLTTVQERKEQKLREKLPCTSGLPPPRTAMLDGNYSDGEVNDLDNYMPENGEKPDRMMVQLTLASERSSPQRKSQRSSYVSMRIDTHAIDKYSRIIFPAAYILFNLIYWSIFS

ginkgolide B
fold more potent than ginkgolide A ([1]; 0.5 μM GABA): approximately 7.7 fold
fold more potent than ginkgolide C ([1]; 0.5 μM GABA): ~1.1 fold
nH of inhibition curve ([1]; 0.5 μM GABA): −0.87 ± 0.05
fold more potent than ginkgolide A ([1]; 1.2 μM GABA): ~18 fold
fold more potent than ginkgolide C ([1]; 1.2 μM GABA): ~2.3 fold
nH of inhibition curve ([1]; 1.2 μM GABA): −0.97 ± 0.07
fold more potent than ginkgolide A ([1]; 3 μM GABA): ~32 fold
fold more potent than ginkgolide C ([1]; 3 μM GABA): ~3.8 fold
nH of inhibition curve ([1]; 3.0 μM GABA): −0.78 ± 0.06
fold more potent than ginkgolide A ([1]; 10 μM GABA): ~6.7 fold
fold more potent than ginkgolide C ([1]; 10 μM GABA): ~4 fold
nH of inhibition curve ([1]; 10 μM GABA): −0.83 ± 0.06
bottom plateau of the inhibition curve ([1]; 10 μM GABA, five out of seven oocytes, up to 3 mM): approximately 30 % of Imax
E′ (opening equilibrium constant with ginkgolide bound) ([2]; Scheme 2, calculated): 1.3
Ka′ (agonist equilibrium constant with ginkgolide bound) ([2]; Scheme 2, calculated): 8.3 µM
R (= Ka/Ka′) ([2]; Scheme 2, fitted): 0.39 ± 0.02
S (= E/E′) ([2]; Scheme 2, fitted): 8.6 ± 0.6
E′ (opening equilibrium constant with ginkgolide bound) ([2]; Scheme 3, calculated): 1 × 10^−9
Ka′ (agonist equilibrium constant with ginkgolide bound) ([2]; Scheme 3, calculated): 12.9 µM
R (= Ka/Ka′) ([2]; Scheme 3, fitted): 0.25 ± 0.01
S (= E/E′) ([2]; Scheme 3, fitted): 1.0 × 10^10 ± 1.4 × 10^16
Ka′ (agonist equilibrium constant with ginkgolide bound) ([2]; Scheme 4, calculated): 8.3 µM
R (= Ka/Ka′) ([2]; Scheme 4, fitted): 0.39 ± 0.02
Inhibition (%) ([3]; 1 μM GABA, 5 μM ginkgolide): 55.5 ± 3.4%
Recovery time (10–90% rise interval) ([3]; 1 μM GABA, 5 μM ginkgolide): 42.8 ± 8.6 s
Inhibition (%) ([3]; 3 μM GABA, 5 μM ginkgolide): 35.2 ± 6.8%
Recovery time (10–90% rise interval) ([3]; 3 μM GABA, 5 μM ginkgolide): 21.3 ± 4.4 s
Inhibition (%) ([3]; 3 μM GABA, 50 μM ginkgolide): 54.6 ± 7.5%
Recovery time (10–90% rise interval) ([3]; 3 μM GABA, 50 μM ginkgolide): 29.4 ± 3.8 s
level of inhibition ([4]; 5 μM ginkgolide, 1 μM GABA, five co-applications after 40 s preincubation): 61.3 ± 1.7%
use-dependence ([4]; 5 μM ginkgolide, 1 μM GABA): not obviously use-dependent
GABA + Ant nH [5, 6]: 1.97 ± 0.10
GABA + Ant nH [5, 7]: 1.83 ± 0.06
GABA + Ant nH [5, 8]: 1.61 ± 0.05
type of antagonism [5]: mixed antagonists
fold increase in the GABA EC50 [5, 9]: 3.2 fold
fold increase in the GABA EC50 [5, 10]: 4.7 fold
fold increase in the GABA EC50 [5, 11]: 7.5 fold
Max. GABA response ([5]; with 10 μM antagonist): 80.65 ± 2.18 %
Max. GABA response ([5]; with 30 μM antagonist): 75.12 ± 1.39 %
Max. GABA response ([5]; with 100 μM antagonist): 69.56 ± 2.48 %

C[C@@H]1C(=O)O[C@H]2C[C@@]34[C@H]5C[C@@H](C(C)(C)C)[C@]36[C@@H](OC(=O)[C@@H]6O)O[C@@]4(C(=O)O5)[C@]21O [Ginkgolide A, ginkgolide A]
nH of inhibition curve ([1]; 0.5 μM GABA): −0.99 ± 0.08
nH of inhibition curve ([1]; 1.2 μM GABA): −0.82 ± 0.07
nH of inhibition curve ([1]; 3.0 μM GABA): −0.61 ± 0.03
nH of inhibition curve ([1]; 10 μM GABA): −0.73 ± 0.04
IC50 ([1]; IC50, 0.5 μM GABA): 5.74 ± 0.17 µM
IC50 ([1]; IC50, 1.2 μM GABA): 42.3 ± 5.76 µM
IC50 ([1]; IC50, 3.0 μM GABA): 182 ± 12.6 µM
IC50 ([1]; IC50, 10 μM GABA): 874 ± 108 µM
Kd ([2]; Kb0, Scheme 2, calculated): 1.3 µM
Kd ([2]; Kb0, Scheme 3, calculated): 1.5 µM
Kd ([2]; Kb0, Scheme 4, calculated): 1.3 µM
Kd ([2]; Kb3, Scheme 2, calculated): 7.7 µM
Kd ([2]; Kb3, Scheme 3, calculated): 6790 µM
Kd ([2]; Kb3, Scheme 4, printed with ±SE): 7.7 ± 1.4 µM
Kd ([2]; Kb4 (equilibrium constant of ginkgolide, open state), Scheme 2, fitted, Ka fixed 3.2 μM, E fixed 11): 19.7 ± 3.9 µM
Kd ([2]; Kb4 (equilibrium constant of ginkgolide, open state), Scheme 3, fitted, Ka fixed 3.2 μM, E fixed 11): 611 ± 89 µM
Kd ([2]; Kb4 (equilibrium constant of ginkgolide, open state), Scheme 4, fitted, Ka fixed 3.2 μM, E fixed 11): 19.7 ± 3.9 µM
E′ (opening equilibrium constant with ginkgolide bound) ([2]; Scheme 2, calculated): 4.3
Ka′ (agonist equilibrium constant with ginkgolide bound) ([2]; Scheme 2, calculated): 5.7 µM
R (= Ka/Ka′) ([2]; Scheme 2, fitted): 0.56 ± 0.03
S (= E/E′) ([2]; Scheme 2, fitted): 2.6 ± 0.2
E′ (opening equilibrium constant with ginkgolide bound) ([2]; Scheme 3, calculated): 122
Ka′ (agonist equilibrium constant with ginkgolide bound) ([2]; Scheme 3, calculated): 53.3 µM
R (= Ka/Ka′) ([2]; Scheme 3, fitted): 0.06 ± 0.05
S (= E/E′) ([2]; Scheme 3, fitted): 0.09 ± 0.22
Ka′ (agonist equilibrium constant with ginkgolide bound) ([2]; Scheme 4, calculated): 5.7 µM
R (= Ka/Ka′) ([2]; Scheme 4, fitted): 0.55 ± 0.03
Recovery time (10–90% rise interval) ([3]; 1 μM GABA, 5 μM ginkgolide): 48.4 ± 5.7 s
inhibition at 5 µM ([3]; 1 μM GABA, 5 μM ginkgolide): 33.8 ± 3.4%
Recovery time (10–90% rise interval) ([3]; 3 μM GABA, 5 μM ginkgolide): 14.3 ± 4.6 s
inhibition at 5 µM ([3]; 3 μM GABA, 5 μM ginkgolide): 15.9 ± 1.6%
Recovery time (10–90% rise interval) ([3]; 3 μM GABA, 50 μM ginkgolide): 18.4 ± 3.4 s
inhibition at 50 µM ([3]; 3 μM GABA, 50 μM ginkgolide): 21.4 ± 1.9%
use-dependence ([4]; 5 μM ginkgolide, 1 μM GABA): not obviously use-dependent
inhibition at 5 µM ([4]; read-out: level of inhibition): 33.2 ± 1.4%
GABA + Ant nH [5, 6]: 1.98 ± 0.12
GABA + Ant nH [5, 7]: 2.25 ± 0.04
GABA + Ant nH [5, 8]: 2.60 ± 0.22
type of antagonism [5]: mixed antagonists
fold increase in the GABA EC50 [5, 9]: 1.9 fold
fold increase in the GABA EC50 [5, 10]: 2.3 fold
fold increase in the GABA EC50 [5, 11]: 2.5 fold
Max. GABA response ([5]; with 10 μM antagonist): 94.78 ± 0.54 %
Max. GABA response ([5]; with 30 μM antagonist): 91.44 ± 0.80 %
Max. GABA response ([5]; with 100 μM antagonist): 85.66 ± 1.34 %
